{
  "source": "patent US20250230193A1",
  "about": "“CYCLIC COMPOUND HAVING SELECTIVE KRAS INHIBITORY EFFECT ON HRAS AND NRAS” (CHUGAI SEIYAKU KABUSHIKI KAISHA, priority 2022, published 2025)",
  "key": {"[1]": {"target": "GDP-bound NRAS wild-type protein (Homo sapiens, UniProt P01111)", "sequence (P01111 whole entry)": "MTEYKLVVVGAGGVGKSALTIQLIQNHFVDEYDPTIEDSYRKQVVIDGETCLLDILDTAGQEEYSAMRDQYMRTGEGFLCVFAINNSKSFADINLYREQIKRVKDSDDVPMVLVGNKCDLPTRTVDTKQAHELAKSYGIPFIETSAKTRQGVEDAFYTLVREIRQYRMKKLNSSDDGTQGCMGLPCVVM", "experiment": "Binding to NRAS by surface plasmon resonance (SPR), Single Cycle Kinetics"}, "[2]": {"target": "GDP-bound HRAS wild-type protein (Homo sapiens, UniProt P01112)", "sequence (P01112 whole entry)": "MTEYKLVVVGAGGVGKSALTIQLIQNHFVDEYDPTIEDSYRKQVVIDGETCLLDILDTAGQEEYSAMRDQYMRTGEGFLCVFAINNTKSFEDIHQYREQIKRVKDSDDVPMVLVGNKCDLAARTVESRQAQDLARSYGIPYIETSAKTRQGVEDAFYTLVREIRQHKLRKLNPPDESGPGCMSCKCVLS", "experiment": "Binding to HRAS by surface plasmon resonance (SPR), Single Cycle Kinetics"}, "[3]": {"settings": "KD ratio, GDP-bound NRAS wild-type vs GDP-bound KRAS wild-type, SPR"}, "[4]": {"settings": "KD ratio, GDP-bound HRAS wild-type vs GDP-bound KRAS wild-type, SPR"}},
  "note": "Where a SMILES comes first, the peptide text is derived from it. Bridges are numbered along the chain shown (N, C = ends). [ ]: non-standard residue; d: D form. The star is where a group is joined. hPhe(3,5-F2-4-CF3) = N[C@@H](CCc1cc(F)c(C(F)(F)F)c(F)c1)C(=O)O; hPhe(3-Cl-4-CF3) = N[C@@H](CCc1ccc(C(F)(F)F)c(Cl)c1)C(=O)O; NPrPhe(4-CF3) = CCCN[C@@H](Cc1ccc(C(F)(F)F)cc1)C(=O)O; NMeGly(cPent) = CN[C@H](C(=O)O)C1CCCC1; Gly(cBu) = N[C@H](C(=O)O)C1CCC1; NMeD = CN[C@@H](CC(=O)O)C(=O)O; NMeL = CN[C@@H](CC(C)C)C(=O)O; αMeV = CC(C)[C@](C)(N)C(=O)O; Morpholide = C1CN(*)CCO1; Ac5c = NC1(C(=O)O)CCCC1; NEtG = CCNCC(=O)O; Sar = CNCC(=O)O",
  "data": [
    {"smiles": "CCO[C@@H]1C[C@H]2C(=O)NC3(CCC3)C(=O)N(C)[C@@H](C3CCCC3)C(=O)N(C)[C@H](C(=O)N3CCOCC3)CC(=O)N(C)[C@@H](COC)C(=O)N[C@@H]([C@@H](C)CC)C(=O)N(C)CC(=O)N(C)[C@H]3CCCCCN(C3=O)[C@@H](Cc3ccc(F)cc3)C(=O)N(C)CC(=O)N[C@@H](CCc3cc(F)c(C(F)(F)F)c(F)c3)C(=O)N2C1", "note": "[PP1179]", "values": [
      {"measurement": "NRAS/KRAS (ratio of KD value with respect to NRAS to KD value with respect to KRAS)", "setting": "[1]; [3]", "value": "B (a compound having 3 or more and less than 10 is denoted as B)"},
      {"measurement": "HRAS/KRAS (ratio of KD value with respect to HRAS to KD value with respect to KRAS)", "setting": "[2]; [4]", "value": "B (a compound having 3 or more and less than 10 is denoted as B)"}
    ]},
    {"smiles": "CC[C@H](C)[C@@H]1NC(=O)[C@H](CC2CCC2)N(C)C(=O)C[C@@H](C(=O)N(C)C)N(C)C(=O)[C@H](C2CCCC2)N(C)C(=O)C2(CCC2)N(C)C(=O)[C@@H]2CCCN2C(=O)[C@H](CCc2cc(F)c(C(F)(F)F)c(F)c2)NC(=O)CN(C)C(=O)[C@H](Cc2ccc(C)cc2)N2CC/C=C\\C[C@@H](C2=O)N(C)C(=O)CN(C)C1=O", "note": "[PP1802]", "values": [
      {"measurement": "NRAS/KRAS (ratio of KD value for NRAS to KD value for KRAS)", "setting": "[1]; [3]", "value": "A (a compound having 10 or more and less than 20 is denoted as A)"},
      {"measurement": "HRAS/KRAS (ratio of KD value for HRAS to KD value for KRAS)", "setting": "[2]; [4]", "value": "B (a compound having 3 or more and less than 10 is denoted as B)"}
    ]},
    {"smiles": "CCCN1C(=O)CN(C)C(=O)CN(C)C(=O)[C@H]([C@@H](C)CC)NC(=O)[C@H](CC(C)C)N(C)C(=O)C[C@@H](C(=O)N2CCOCC2)N(C)C(=O)[C@H](C2CCCC2)N(C)C(=O)[C@](C)(C(C)C)NC(=O)[C@@H]2CCCN2C(=O)[C@H](CCc2cc(F)c(C(F)(F)F)c(F)c2)NC(=O)CN(C)C(=O)[C@@H]1Cc1ccc(C(F)(F)F)cc1", "note": "[PP0756] ([NMeL]I[Sar][Sar][NPrPhe(4-CF3)][Sar][hPhe(3,5-F2-4-CF3)]P[αMeV][NMeGly(cPent)][NMeD]-Morpholide; lactam N-11)", "values": [
      {"measurement": "NRAS/KRAS (ratio of KD value with respect to GDP-bound NRAS wild-type protein to KD value with respect to KRAS)", "setting": "[1]; KD ratio NRAS/KRAS, SPR", "value": "B (a compound having 3 or more and less than 10 is denoted as B)"},
      {"measurement": "HRAS/KRAS (ratio of KD value with respect to GDP-bound HRAS wild-type protein to KD value with respect to KRAS)", "setting": "[2]; KD ratio HRAS/KRAS, SPR", "value": "B (a compound having 3 or more and less than 10 is denoted as B)"}
    ]},
    {"smiles": "CCCN1C(=O)CN(C)C(=O)CN(CC)C(=O)[C@H](C2CCC2)NC(=O)[C@H](CC(C)C)N(C)C(=O)C[C@@H](C(=O)N2CCOCC2)N(C)C(=O)[C@H](C2CCCC2)N(C)C(=O)C2(CCCC2)NC(=O)[C@@H]2CCCN2C(=O)[C@H](CCc2ccc(C(F)(F)F)c(Cl)c2)NC(=O)CN(C)C(=O)[C@@H]1Cc1ccc(C(F)(F)F)cc1", "note": "[PP0292] ([NMeL][Gly(cBu)][NEtG][Sar][NPrPhe(4-CF3)][Sar][hPhe(3-Cl-4-CF3)]P[Ac5c][NMeGly(cPent)][NMeD]-Morpholide; lactam N-11)", "values": [
      {"measurement": "NRAS/KRAS (ratio of KD for GDP-bound NRAS wild-type to KD for KRAS)", "setting": "[1]; KD ratio NRAS/KRAS, SPR", "value": "B (a compound having 3 or more and less than 10 is denoted as B)"},
      {"measurement": "HRAS/KRAS (ratio of KD for GDP-bound HRAS wild-type to KD for KRAS)", "setting": "[2]; KD ratio HRAS/KRAS, SPR", "value": "C (A compound having a KD ratio of 0.1 or more and less than 3 is denoted as C)"}
    ]},
    {"smiles": "CCO[C@@H]1C[C@H]2C(=O)NC3(CCC3)C(=O)N(C)[C@@H](C3CCCC3)C(=O)N(C)[C@H](C(=O)N(C)C)CC(=O)N(C)[C@@H](Cc3cccnc3)C(=O)N[C@@H]([C@@H](C)CC)C(=O)N(C)CC(=O)N(C)[C@H]3CCCCCN(C3=O)[C@@H](Cc3ccc(F)cc3)C(=O)N(C)CC(=O)N[C@@H](CCc3cc(F)c(C(F)(F)F)c(F)c3)C(=O)N2C1", "note": "[PP1196]", "values": [
      {"measurement": "NRAS/KRAS (ratio of KD value with respect to NRAS to KD value with respect to KRAS)", "setting": "[1]; [3]", "value": "B (a compound having 3 or more and less than 10 is denoted as B)"},
      {"measurement": "HRAS/KRAS (ratio of KD value with respect to HRAS to KD value with respect to KRAS)", "setting": "[2]; [4]", "value": "B (a compound having 3 or more and less than 10 is denoted as B)"}
    ]},
    {"smiles": "CCO[C@@H]1C[C@H]2C(=O)NC3(CCC3)C(=O)N(C)[C@@H](C3CCCC3)C(=O)N(C)[C@H](C(=O)N3CCOCC3)CC(=O)N(C)[C@@H](Cc3cccnc3)C(=O)N[C@@H]([C@@H](C)CC)C(=O)N(C)CC(=O)N(C)[C@H]3CCCCN(C3=O)[C@@H](Cc3ccc(C(F)(F)F)cc3)C(=O)N(C)CC(=O)N[C@@H](CCc3cc(F)c(C(F)(F)F)c(F)c3)C(=O)N2C1", "note": "[PP0718]", "values": [
      {"measurement": "NRAS/KRAS (ratio of KD value with respect to GDP-bound NRAS wild-type protein to KD value with respect to KRAS)", "setting": "[1]; KD ratio NRAS/KRAS, SPR", "value": "C (A compound having a KD ratio of 0.1 or more and less than 3 is denoted as C)"},
      {"measurement": "HRAS/KRAS (ratio of KD value with respect to GDP-bound HRAS wild-type protein to KD value with respect to KRAS)", "setting": "[2]; KD ratio HRAS/KRAS, SPR", "value": "B (a compound having 3 or more and less than 10 is denoted as B)"}
    ]},
    {"smiles": "CCO[C@@H]1C[C@H]2C(=O)NC3(CCC3)C(=O)N(C)[C@@H](C3CCCC3)C(=O)N(C)[C@H](C(=O)N(C)C)CC(=O)N(C)[C@@H](CC3CCCC3)C(=O)N[C@@H]([C@@H](C)CC)C(=O)N(C)CC(=O)N(C)[C@H]3C/C=C\\CCN(C3=O)[C@@H](Cc3ccc(C)cc3)C(=O)N(C)CC(=O)N[C@@H](CCc3ccc(C(F)(F)F)c(CC)c3)C(=O)N2C1", "note": "[PP2672]", "values": [
      {"measurement": "NRAS/KRAS (ratio of KD value with respect to GDP-bound NRAS wild-type protein to KD value with respect to KRAS)", "setting": "[1]; KD ratio NRAS/KRAS, class symbols", "value": "B (a compound having 3 or more and less than 10 is denoted as B)"},
      {"measurement": "HRAS/KRAS (ratio of KD value with respect to GDP-bound HRAS wild-type protein to KD value with respect to KRAS)", "setting": "[2]; KD ratio HRAS/KRAS, class symbols", "value": "B (a compound having 3 or more and less than 10 is denoted as B)"}
    ]},
    {"smiles": "CCO[C@@H]1C[C@H]2C(=O)NC3(CCC3)C(=O)N(C)[C@@H](C3CCCC3)C(=O)N(C)[C@H](C(=O)N(C)C)CC(=O)N(C)[C@@H](CCOC)C(=O)N[C@@H]([C@@H](C)CC)C(=O)N(C)CC(=O)N(C)[C@H]3CCCCN(C3=O)[C@@H](Cc3ccc(C(F)(F)F)cc3)C(=O)N(C)CC(=O)N[C@@H](CCc3cc(F)c(C(F)(F)F)c(F)c3)C(=O)N2C1", "note": "[PP0705]", "values": [
      {"measurement": "NRAS/KRAS (ratio of KD value with respect to GDP-bound NRAS wild-type protein to KD value with respect to KRAS)", "setting": "[1]; KD ratio NRAS/KRAS, SPR", "value": "C (A compound having a KD ratio of 0.1 or more and less than 3 is denoted as C)"},
      {"measurement": "HRAS/KRAS (ratio of KD value with respect to GDP-bound HRAS wild-type protein to KD value with respect to KRAS)", "setting": "[2]; KD ratio HRAS/KRAS, SPR", "value": "C (A compound having a KD ratio of 0.1 or more and less than 3 is denoted as C)"}
    ]}
  ]
}
